Test results: PubChem BioAssay AID489027 (Sanford-Burnham Center for Chemical Genomics, 2010)
Activity calls are given as the source filed them. How the calls were made is not given here.

target: UPR counterscreen luciferase reporter, luminescence; assay: luciferase reporter activation, UPR counterscreen line – cell-based, luminescence, counter-screen for adaptive UPR activator project, dose response (AID 489027)

| Compound | EC50 |
| --- | --- |
| Cc1ccc(C(=O)C(C(=O)/C=C/c2ccccc2)=C2SCCCS2)cc1 | 11.9 µM |
| CCCCNC(=O)c1ccc(Cn2c(=S)[nH]c3c([nH]c4ccc(OC)cc43)c2=O)cc1 | > 80 µM (inactive) |
| COc1ccc(-c2sc3ccccc3c2-c2ccc(OCCN(C)C)cc2)cc1 | 13.3 µM |
| CCCn1c(SCc2nc3sc(C)c(C)c3c(=O)[nH]2)nc2ccccc2c1=O | > 80 µM (inactive) |
| COc1ccc(NC(=O)c2sc3nc(N4CCOCC4)c4c(c3c2N)CC(C)(C)OC4)c(OC)c1 | 19.3 µM |
| COc1cc(OC)cc(C(=O)Nc2ccc3nc4n(c(=O)c3c2)CCCCC4)c1 | > 80 µM (inactive) |
| CCOC(=O)c1nn(-c2ccc(OCC)cc2)c2nc(-c3ccco3)c(C#N)c(=O)n12 | inactive |
| Cc1cccc2sc(NC(=O)c3cc(S(=O)(=O)N(C)C)ccc3N3CCCC3)nc12 | 7.43 µM |
| COc1ccc(-c2nc3scc(-c4ccc(OC)c(OC)c4)c3c(=O)o2)cc1 | > 80 µM (inactive) |
| CCOC(=O)c1nnc(-c2ccc(C)cc2)nc1Oc1ccc(Cl)cc1Cl | 13.1 µM |
| CCn1cc(C(=O)NC(=S)Nc2sc3c(c2C(=O)OC)CCCCCC3)cn1 | inactive |
| Cc1nc2ccccc2n1-c1nc(-c2ccco2)cc(C(F)(F)F)n1 | 11.1 µM |
| CCCNC(=O)/C(C#N)=C1\N=C(NC(=O)c2cccs2)c2ccccc21 | > 80 µM (inactive) |
| O=[N+]([O-])c1cc(-c2ccc(/C=N/c3nc4ccccn4c3-c3ccco3)o2)ccc1Cl | > 80 µM (inactive) |
| COc1cc(/C=C(/C#N)c2nc3ccccc3[nH]2)ccc1OCC(=O)Nc1ccccc1C | 3.77 µM |
| Cc1cc(NC(=O)/C(C#N)=C/c2ccc(-c3ccc(SC(F)F)cc3)o2)n(-c2ccccc2)n1 | > 80 µM (inactive) |
| CCc1sc2nc(SCC(=O)Nc3cc(C)on3)n(-c3cccc(OC)c3)c(=O)c2c1C | 15.6 µM |
| COc1ccc2[nH]c3c(c2c1)CCN1C(=O)C(CC(=O)NC/C=C(\C)CCC=C(C)C)C[C@H](C(=O)N(C(C)C)C(C)C)[C@@]31C (some centres not stated) | inactive |
| COCc1cc(C)nc(OCC(=O)N/N=C/c2ccc(-c3cc([N+](=O)[O-])ccc3Cl)o2)c1C#N | 13.6 µM |
| O=C1NC(=O)C(=Cc2cn(CCOc3ccc4c(c3)OCO4)c3ccccc23)C(=O)N1 | 18.5 µM |
| NS(=O)(=O)c1ccc(N=Cc2c(O)n(C3CCCCC3)c(=O)n(C3CCCCC3)c2=O)cc1 | 14.6 µM |
| Oc1ccc(CN2CCC(Cc3ccccc3)CC2)c2cccnc12 | 5.55 µM |
| COc1ccccc1Nc1nnc(SCC(=O)NC(=O)Nc2ccc3c(c2)OCCO3)s1 | > 80 µM (inactive) |
| Cc1ccc(NS(=O)(=O)c2cc([N+](=O)[O-])ccc2N/N=C/c2sc(N3CCOCC3)nc2-c2ccccc2)c(C)c1 | > 80 µM (inactive) |

| Compound | EC50 |
| --- | --- |
| Oc1cc(-c2cccnc2)cc2cccnc12 | inactive |
| Oc1ccc(/C=N/Nc2cc(N3CCOCC3)nc(N3CCOCC3)n2)cc1O | 3.8 µM |
| FC(F)(F)c1nnc2c(Sc3ccccc3)nc3ccc(Cl)cc3n12 | 4.29 µM |
| Brc1cc2c(cc1/C=N/Nc1nc3ccccc3s1)OCO2 | > 80 µM (inactive) |
| C#CCOCCOCCOCCNc1nc(N2CCN(C(=O)CCCCCCCCCCNC(=O)[C@H](CCCCN)n3cc(C[C@@H](C)CC)nn3)CC2)nc(N2CCN(C(=O)CCCCCCCCCCNC(=O)[C@H](CCCN=C(N)N)n3cc(C[C@@H](C)CC)nn3)CC2)n1 | > 80 µM (inactive) |
| COc1cc(/C=C2/C(=N)N3C=CSC3=NC2=O)ccc1OCCCOc1cc(C)ccc1C | > 80 µM (inactive) |
| Brc1cc(Br)c2ncnc(N3CCCCC3)c2c1 | inactive |
| Cc1ccc(Cc2cnc(NC(=O)/C(C#N)=C/c3ccc(-c4ccc([N+](=O)[O-])cc4)o3)s2)cc1 | 11.3 µM |
| Cc1cc(NC(=O)c2cc(-c3ccncc3)nc3ccccc23)ccc1Br | > 80 µM (inactive) |
| NS(=O)(=O)c1ccc(NC(=O)COC(=O)c2cn(-c3ccccc3)nc2-c2ccc(F)cc2)cc1 | inactive |
| COc1ccc(C2NCCc3c2[nH]c2ccccc32)cc1COc1ccc(F)cc1 (configuration not stated) | 18.3 µM |
| Cn1nc(C(F)(F)F)c(/C=N/OC(=O)c2ccccc2)c1SCc1ccc(Cl)cc1 | inactive |
| CC1(C)CC(=O)C(C=Nc2ccc(C(=O)c3ccccc3)cc2N=CC2=C(O)CC(C)(C)CC2=O)=C(O)C1 | 9.78 µM |
| CCC(Sc1nnc2c3ccccc3n(CC)c2n1)C(=O)Nc1sc2c(c1C#N)CCCC2 (configuration not stated) | inactive |
| Cc1ccc(-c2[nH]ncc2/C=N/n2c(COc3ccccc3)nc3ccccc3c2=O)cc1 | inactive |
| CCOc1ccc(NC(=O)C(Cc2ccccc2)N2C(=O)c3cccc4cccc(c34)C2=O)cc1 (configuration not stated) | > 80 µM (inactive) |
| CCc1cc2c(C)ccc(C)c2nc1SCC(=O)Nc1c[nH]c(=O)[nH]c1=O | 16.8 µM |
| Cc1ccc(-c2nn(CC(=O)NCc3cc(-c4nn(C)c(=O)c5ccccc45)ccc3C)c(=O)c3ccccc23)cc1 | 13.1 µM |
| CCOC(=O)c1c(NC(=O)CNC2CCCc3ccccc32)sc(C(N)=O)c1C (configuration not stated) | > 80 µM (inactive) |
| CCc1cc2c(=O)c(-c3cnn(-c4ccccc4)c3)c(C)oc2cc1OCC(=O)Nc1cccc(C)c1 | 11.5 µM |
| O=C(COc1ccc(Cl)cc1Cl)NN=C1c2ccccc2-c2ccccc21 | inactive |
| CCC1(c2ccc(F)cc2)NC(=O)N(CC(=O)Nc2ccc(-c3nc4ccc(C)cc4s3)cc2)C1=O (configuration not stated) | > 80 µM (inactive) |
| CC(C)(C)C(=O)NC(=S)NNC(=O)c1sc2ccccc2c1Cl | > 80 µM (inactive) |
